Here are results for 15 compounds from US20260068884A1, “COMPOSITION USED FOR KILLING FUNGI AND METHOD FOR APPLYING COMPOSITION” (JIANGSU FLAG CHEMICAL INDUSTRY CO., LTD., priority 2022, published 2026).

Assay [1] deals with rape sclerotinia sclerotiorum. The experiment in a line: plate method, inhibition of hypha growth (in-vessel bioassay). The class given is cell-based. The conditions noted are these: for EC50: Sclerotinia sclerotiorum.
Assay [2] has as its system cucumber powdery mildew. As to the kind of experiment: field efficacy test for cucumber powdery mildew. The class given is in vivo. To be noted: spray. As for the experimental part: Field efficacy test for preventing and treating cucumber powdery mildew.
The test object is cucumber powdery mildew. The test is carried out on Xiaoying village of Liuhe district of Nanjing city, Jiangsu Province, China, the field trend of the test is flat, the soil is loam, the fertility is medium, the pH value is 6.8, and the management of rich water during the test is medium. And setting blank contrast, repeating the treatment for 3 times, wherein each cell has 30 square meters and is arranged in random block groups. The water consumption per acre is 40 L by adopting a conventional spraying method, and the water is uniformly sprayed on the front and back surfaces of the leaves.
The investigation and statistical method comprises the steps of investigating the base of illness state before application of the medicament, and investigating once again 10-14 days after the last application of the medicament, wherein 2 times of investigation are total. Four points are randomly taken from each cell, 2 plants are investigated from each point, all leaves are investigated from each plant, and each leaf is graded and recorded according to the percentage of lesion spots to the leaf area. The grading method comprises the following steps: • stage 0: no lesion spots; • stage 1: the lesion area accounts for less than 5% of the whole leaf area; • stage 3: the ratio of the lesion spot area to the whole leaf area is more than 6% to less than 10%; • stage 5: the ratio of the lesion spot area to the whole leaf area is more than 11% to less than 25%; • stage 7: the ratio of the lesion spot area to the whole leaf area is more than 26% to less than 50%; • stage 9: the ratio of the lesion spot area to the whole leaf area is more than 50%;
When the fungicidal activity of the active compound combination exceeds the sum of the activities of the active compounds when applied individually, then there is always a synergistic effect of the fungicides. The expected activity of a given combination of two active compounds can be calculated (according to the Colby formula) as follows (refer to S. R. Colby, “Calculation of the synergistic andantagonistic responses of herbicide combinations”, Weeds 1967, 15, pages 20-22):
[formula] • X is the efficacy of component A when applied at an application rate of m g a.i./ha, • Y is the efficacy of component B when applied at an application rate of n g a.i./ha, • Cexp is the expected efficacy when the active compound A is administered at an application rate of m g a.i./ha and the active compound B is administered at an application rate of n g a.i./ha, respectively, • the degree of efficacy is expressed as %: 0% means the efficacy corresponding to the control group, while 100% efficacy means no disease observed. • C-Cobs/Cexp, C>1 indicates synergy and antagonism if C<1.

Assay [3] deals with wheat scab germ (Fusarium graminearum). As to the kind of experiment: microbe, parasite or virus in culture. The class given is cell-based. The conditions noted are these: for Measured Toxicity Index of Mixture (ATI): standard fungicide = component A.
Assay [4] deals with Blumeria graminis. The experiment in a line: pot culture method, protective control of wheat powdery mildew. The class given is in vivo. To be noted: for EC50: Blumeria graminis, control efficacy, potted wheat, sprayed 24 h before inoculation, 7 days after inoculation; for Measured Toxicity Index of Mixture (ATI): standard fungicide = component A.
Assay [5] has as its system wheat rust (Puccinia striiformis f. sp. tritici). As to the kind of experiment: pot culture method, protective control of wheat rust. The format is in vivo. The conditions noted are these: for EC50: Puccinia striiformis; for Measured Toxicity Index of Mixture (ATI): standard fungicide = component A.
The mark [6] stands for this setting: single component B, g a.i./ha: azoxystrobin 72, fludioxonil 50, pyraclostrobin 160, difenoconazole 100.
The mark [7] stands for this setting: hypha growth inhibition, plate method, wheat fusarium graminearum.

≈ marks a conversion by molar mass, not a printed value. Read-outs that look alike come from different tables or passages of the source.

Broadly, the EC50 is the concentration giving half of the maximal effect. Read a low EC50 as greater potency. As to `N#Cc1c(Cl)c(Cl)c(Cl)c(C#N)c1Cl` [chlorothalonil], in assay [1], the “Measured Toxicity Index of Mixture (ATI)” value was 1.22 and the EC50 came to 0.82 µg/mL (≈ 3.08 µM).
Consider `COC(=O)N(OC)c1ccccc1COc1ccn(-c2ccc(Cl)cc2)n1` [pyraclostrobin], for which the “Cobs Actual control Effect” value in assay [2] (setting [6]) was determined as 72.87%. Besides, the 50% effective concentration (EC50) in assay [3] (Fusarium graminearum) came out at 2 µg/mL (≈ 5.16 µM); in assay [4], 12 µg/mL (≈ 30.9 µM); in assay [5], 12 µg/mL (≈ 30.9 µM). In addition, the “Measured Toxicity Index of Mixture (ATI)” value is 0.50 in assay [3], 133.33 in assay [4] and 241.67 in assay [5].
Consider `C=C(CN(C(=O)c1c(C(F)F)nn(C)c1F)C1CC1)c1ccc(Cl)cc1Cl` [component A], for which the “Cobs Actual control Effect” value in assay [2] (40 g a.i./ha) is listed as 37.60%; in assay [2] (60 g a.i./ha), 46.88%; in assay [2] (104 g a.i./ha), 54.68%; in assay [2] (150 g a.i./ha), 67.74%. In addition, the concentration for a half-maximal effect (EC50) in assay [3] (Fusarium graminearum) stood at 0.01 µg/mL (≈ 0.0239 µM); in assay [1], 0.01 µg/mL (≈ 0.0239 µM); in assay [4], 16 µg/mL (≈ 38.3 µM); in assay [5], 29 µg/mL (≈ 69.3 µM). For the same compound, the “Measured Toxicity Index of Mixture (ATI)” value was found to be 100.00 in assay [3], 100 in assay [1] (standard fungicide = component A), 100.00 in assay [4] and 100.00 in assay [5].
fluazolidinamide: the “Measured Toxicity Index of Mixture (ATI)” value in assay [4] amounted to 80.00; in assay [5] it was 116.00.
On to `CC(C)(C)C(O)(CCc1ccc(Cl)cc1)Cn1cncn1` (stereo not drawn) [tebuconazole], for which the 50% effective concentration (EC50) in assay [3] (Fusarium graminearum) is 0.06 µg/mL (≈ 0.195 µM); in assay [1], 0.1 µg/mL (≈ 0.325 µM); in assay [4], 13 µg/mL (≈ 42.2 µM); in assay [5], 16 µg/mL (≈ 52 µM). The “Measured Toxicity Index of Mixture (ATI)” value in assay [3] is 16.67; in assay [1], 10.00; in assay [4], 123.08; in assay [5] it was 181.25.
Regarding `CCCN(CCOc1c(Cl)cc(Cl)cc1Cl)C(=O)n1ccnc1` [prochloraz], the values for the concentration for a half-maximal effect (EC50) in assay [3] (Fusarium graminearum) and in assay [1] were 0.02 µg/mL (≈ 0.0531 µM) and 0.08 µg/mL (≈ 0.212 µM), respectively. Besides, the “Measured Toxicity Index of Mixture (ATI)” value in assay [3] is recorded as 50.00; in assay [1], 12.5.
Take `CCOC(=O)C(C#N)=C(N)c1ccccc1` [phenamacril]: a half-maximal effect in assay [3] (setting [7]) (EC50) was put at 0.4 µg/mL (≈ 1.85 µM). In addition, the “Measured Toxicity Index of Mixture (ATI)” value in assay [3] is 2.50.
Turning to `CO/C=C(/C(=O)OC)c1ccccc1Oc1cc(Oc2ccccc2C#N)ncn1` [azoxystrobin], in assay [2] (setting [6]), the “Cobs Actual control Effect” value is given as 50.28%.
With `OC(Cc1ccccc1Cl)(Cn1nc[nH]c1=S)C1(Cl)CC1` (stereo not drawn) [prothioconazole], the EC50 in assay [3] (Fusarium graminearum) was determined as 4 µg/mL (≈ 11.6 µM); in assay [4], 14 µg/mL (≈ 40.7 µM); in assay [5], 9 µg/mL (≈ 26.1 µM). Also, the “Measured Toxicity Index of Mixture (ATI)” value in assay [3] came out at 0.25; in assay [4], 114.29; in assay [5], 322.22.
With `CC1COC(Cn2cncn2)(c2ccc(Oc3ccc(Cl)cc3)cc2Cl)O1` (stereo not drawn) [difenoconazole], the “Cobs Actual control Effect” value in assay [2] (setting [6]) is 67.85%.
With `CC(C1CC1)C(O)(Cn1cncn1)c1ccc(Cl)cc1` (stereo not drawn) [ciproconazole], the EC50 in assay [3] (setting [7]) is 2 µg/mL (≈ 6.85 µM). In addition, the “Measured Toxicity Index of Mixture (ATI)” value turned out to be 0.50 in assay [3], 94.12 in assay [4] and 233.08 in assay [5].
With `N#Cc1c[nH]cc1-c1cccc2c1OC(F)(F)O2` [fludioxonil], the “Cobs Actual control Effect” value in assay [2] (setting [6]) came out at 47.70%. In assay [1], the “Measured Toxicity Index of Mixture (ATI)” value is 66.67 and a half-maximal response (EC50) required 0.015 µg/mL (≈ 0.0604 µM).
On to `CC1(C)CCC(Cc2ccc(Cl)cc2)C1(O)Cn1cncn1` (stereo not drawn) [metconazole], for which the midpoint of the response in assay [3] (Fusarium graminearum), the EC50, lay at 0.03 µg/mL (≈ 0.0938 µM). The “Measured Toxicity Index of Mixture (ATI)” value in assay [3] is listed as 33.33.
Take `OCC1=C[C@H](N[C@H]2C[C@H](CO)[C@@H](O[C@@H]3O[C@H](CO)[C@@H](O)[C@H](O)[C@H]3O)[C@H](O)[C@H]2O)[C@H](O)[C@@H](O)[C@@H]1O` [validamycin]: the response in assay [3] (Fusarium graminearum) was half-maximal at 13 µg/mL (≈ 26.1 µM) (EC50). Besides, the “Measured Toxicity Index of Mixture (ATI)” value in assay [3] is 0.08.
Take `CCCC1COC(Cn2cncn2)(c2ccc(Cl)cc2Cl)O1` (stereo not drawn) [propiconazole]: in assay [4], the EC50 was found to be 11 µg/mL (≈ 32.1 µM) and the “Measured Toxicity Index of Mixture (ATI)” value worked out at 145.45. Moreover, in assay [5], the midpoint of the response, the EC50, lay at 15 µg/mL (≈ 43.8 µM) and the “Measured Toxicity Index of Mixture (ATI)” value worked out at 193.33.
